Measured values taken from patent publication US20110071108A1, “Beta-Cyclodextrin Derivatives as Antibacterial Agents” (Pinnacle Pharmaceuticals, Inc., priority 2005, published 2011).

What was measured:
Assay in all cases: Bacterial panel testing, MIC by broth microdilution
Assay type in all cases: cell-based
Settings in all cases: 20-24 hours growth
Enterococcus faecium = tested on: Enterococcus faecium
Protocol: (§1) One to three colonies of bacteria were picked from an Mueller-Hinton or Brain Heart infusion agar plate (depending on the bacterial strain) and transferred to 3 ml Mueller-Hinton broth or Brain Heart infusion media (depending on the bacterial strain). Bacteria were allowed to grow for 2-4 hours in an incubator at 37° C. Bacteria-inoculated media were dispersed in 0.9% saline to match McFarland standard density. 100 μl standardized inoculation was added to 20 ml media (dilution 1). 10 μl of the new dilution was added to 990 μl media and mixed (dilution 2). 10 μl of dilution 2 was spread on an agar plate and allowed to grow overnight. Colonies were then […].
(§2) Test compound was diluted to 10 μg/ml in dimethylsulfoxide. Four μl of Rifampicin antibiotic was loaded into row H, column 2.
(§3) All wells were then filled with 100 μl of inoculated media (dilution 1 from Example 1). A further 100 μl of the inoculated media was then added to column 2 and the contents are pipetted to thoroughly mix the contents. A full 100 μl was then transferred from column 2 and mixed into column 3. This process was continued from left to right until columns 2-12 were serially diluted, and the final draw from column 12 was discarded. The plates were covered with 3M sealing tape (plates containing Enterococcus faecium were sealed with Air Pore sealing tape) and allowed to grow for 20-24 hours. Cytotoxic wells (clear wells) are then scored and the potency of the compound was determined.

Staphylococcus aureus = tested on: Staphylococcus aureus
Protocol: as §1, §2, §3

Pseudomonas aeruginosa = tested on: Pseudomonas aeruginosa
Protocol: as §1, §2, §3

Eschericia coli = tested on: Eschericia coli
Protocol: as §1, §2, §3

Salmonella choleraesuis = tested on: Salmonella choleraesuis
Protocol: as §1, §2, §3

CC(C)(C)OC(=O)NC(CCCN)C(=O)NCC1OC2OC3C(CNC(=O)C(CCCN)NC(=O)OC(C)(C)C)OC(OC4C(CNC(=O)C(CCCN)NC(=O)OC(C)(C)C)OC(OC5C(CNC(=O)C(CCCN)NC(=O)OC(C)(C)C)OC(OC6C(CNC(=O)C(CCCN)NC(=O)OC(C)(C)C)OC(OC7C(CNC(=O)C(CCCN)NC(=O)OC(C)(C)C)OC(OC8C(CNC(=O)C(CCCN)NC(=O)OC(C)(C)C)OC(OC1C(O)C2O)C(O)C8O)C(O)C7O)C(O)C6O)C(O)C5O)C(O)C4O)C(O)C3O.Cl.Cl.Cl.Cl.Cl.Cl.Cl (centres unmarked)
>200 µg/mL: MIC EF (Enterococcus faecium) | MIC SA (Staphylococcus aureus) | MIC PA (Pseudomonas aeruginosa)

Cl.Cl.Cl.Cl.Cl.Cl.Cl.NC(CO)C(=O)NCC1OC2OC3C(CNC(=O)C(N)CO)OC(OC4C(CNC(=O)C(N)CO)OC(OC5C(CNC(=O)C(N)CO)OC(OC6C(CNC(=O)C(N)CO)OC(OC7C(CNC(=O)C(N)CO)OC(OC8C(CNC(=O)C(N)CO)OC(OC1C(O)C2O)C(O)C8O)C(O)C7O)C(O)C6O)C(O)C5O)C(O)C4O)C(O)C3O (centres unmarked)
>200 µg/mL: MIC EC (Eschericia coli) | MIC SA (Staphylococcus aureus) | MIC PA (Pseudomonas aeruginosa) | MIC SC (Salmonella choleraesuis)

CC(O)C(N)C(=O)NCC1OC2OC3C(CNC(=O)C(N)C(C)O)OC(OC4C(CNC(=O)C(N)C(C)O)OC(OC5C(CNC(=O)C(N)C(C)O)OC(OC6C(CNC(=O)C(N)C(C)O)OC(OC7C(CNC(=O)C(N)C(C)O)OC(OC8C(CNC(=O)C(N)C(C)O)OC(OC1C(O)C2O)C(O)C8O)C(O)C7O)C(O)C6O)C(O)C5O)C(O)C4O)C(O)C3O.Cl.Cl.Cl.Cl.Cl.Cl.Cl (centres unmarked)
>200 µg/mL: MIC EC (Eschericia coli) | MIC SA (Staphylococcus aureus) | MIC PA (Pseudomonas aeruginosa) | MIC SC (Salmonella choleraesuis)

O=C(C[n+]1ccccc1)NCC1OC2OC3C(CNC(=O)C[n+]4ccccc4)OC(OC4C(CNC(=O)C[n+]5ccccc5)OC(OC5C(CNC(=O)C[n+]6ccccc6)OC(OC6C(CNC(=O)C[n+]7ccccc7)OC(OC7C(CNC(=O)C[n+]8ccccc8)OC(OC8C(CNC(=O)C[n+]9ccccc9)OC(OC1C(O)C2O)C(O)C8O)C(O)C7O)C(O)C6O)C(O)C5O)C(O)C4O)C(O)C3O.[Cl-].[Cl-].[Cl-].[Cl-].[Cl-].[Cl-].[Cl-] (centres unmarked)
>200 µg/mL: MIC EC (Eschericia coli) | MIC EF (Enterococcus faecium) | MIC SA (Staphylococcus aureus) | MIC PA (Pseudomonas aeruginosa) | MIC SC (Salmonella choleraesuis)

Cl.Cl.Cl.Cl.Cl.Cl.Cl.O=C(CNCc1ccccc1)NCC1OC2OC3C(CNC(=O)CNCc4ccccc4)OC(OC4C(CNC(=O)CNCc5ccccc5)OC(OC5C(CNC(=O)CNCc6ccccc6)OC(OC6C(CNC(=O)CNCc7ccccc7)OC(OC7C(CNC(=O)CNCc8ccccc8)OC(OC8C(CNC(=O)CNCc9ccccc9)OC(OC1C(O)C2O)C(O)C8O)C(O)C7O)C(O)C6O)C(O)C5O)C(O)C4O)C(O)C3O (centres unmarked)
>200 µg/mL: MIC EC (Eschericia coli) | MIC EF (Enterococcus faecium) | MIC SA (Staphylococcus aureus) | MIC PA (Pseudomonas aeruginosa) | MIC SC (Salmonella choleraesuis)

COC(=O)c1cccc(NCC2OC3OC4C(CNc5cccc(C(=O)OC)c5)OC(OC5C(CNc6cccc(C(=O)OC)c6)OC(OC6C(CNc7cccc(C(=O)OC)c7)OC(OC7C(CNc8cccc(C(=O)OC)c8)OC(OC8C(CNc9cccc(C(=O)OC)c9)OC(OC9C(CNc%10cccc(C(=O)OC)c%10)OC(OC2C(O)C3O)C(O)C9O)C(O)C8O)C(O)C7O)C(O)C6O)C(O)C5O)C(O)C4O)c1 (centres unmarked)
>200 µg/mL: MIC EC (Eschericia coli) | MIC SA (Staphylococcus aureus) | MIC PA (Pseudomonas aeruginosa) | MIC SC (Salmonella choleraesuis)

OC1C2OC(CN3CCCc4ccccc43)C(OC3OC(CN4CCCc5ccccc54)C(OC4OC(CN5CCCc6ccccc65)C(OC5OC(CN6CCCc7ccccc76)C(OC6OC(CN7CCCc8ccccc87)C(OC7OC(CN8CCCc9ccccc98)C(OC8OC(CN9CCCc%10ccccc%109)C(O2)C(O)C8O)C(O)C7O)C(O)C6O)C(O)C5O)C(O)C4O)C(O)C3O)C1O (centres unmarked)
>200 µg/mL: MIC EC (Eschericia coli) | MIC EF (Enterococcus faecium) | MIC PA (Pseudomonas aeruginosa) | MIC SC (Salmonella choleraesuis)

OC1C2OC(CNC3CCCc4ccccc43)C(OC3OC(CNC4CCCc5ccccc54)C(OC4OC(CNC5CCCc6ccccc65)C(OC5OC(CNC6CCCc7ccccc76)C(OC6OC(CNC7CCCc8ccccc87)C(OC7OC(CNC8CCCc9ccccc98)C(OC8OC(CNC9CCCc%10ccccc%109)C(O2)C(O)C8O)C(O)C7O)C(O)C6O)C(O)C5O)C(O)C4O)C(O)C3O)C1O (centres unmarked)
>200 µg/mL: MIC EC (Eschericia coli) | MIC EF (Enterococcus faecium) | MIC PA (Pseudomonas aeruginosa)

CCCCCCCCCCCCCCCC[N+]12CC[N+](CC(=O)NCC3OC4OC5C(CNC(=O)C[N+]67CC[N+](CCCCCCCCCCCCCCCC)(CC6)CC7)OC(OC6C(CNC(=O)C[N+]78CC[N+](CCCCCCCCCCCCCCCC)(CC7)CC8)OC(OC7C(CNC(=O)C[N+]89CC[N+](CCCCCCCCCCCCCCCC)(CC8)CC9)OC(OC8C(CNC(=O)C[N+]9%10CC[N+](CCCCCCCCCCCCCCCC)(CC9)CC%10)OC(OC9C(CNC(=O)C[N+]%10%11CC[N+](CCCCCCCCCCCCCCCC)(CC%10)CC%11)OC(OC%10C(CNC(=O)C[N+]%11%12CC[N+](CCCCCCCCCCCCCCCC)(CC%11)CC%12)OC(OC3C(O)C4O)C(O)C%10O)C(O)C9O)C(O)C8O)C(O)C7O)C(O)C6O)C(O)C5O)(CC1)CC2 (centres unmarked)
>200 µg/mL: MIC EC (Eschericia coli) | MIC EF (Enterococcus faecium) | MIC PA (Pseudomonas aeruginosa) | MIC SC (Salmonella choleraesuis)

Cc1ccc(NCC2OC3OC4C(CNc5ccc(C)cc5)OC(OC5C(CNc6ccc(C)cc6)OC(OC6C(CNc7ccc(C)cc7)OC(OC7C(CNc8ccc(C)cc8)OC(OC8C(CNc9ccc(C)cc9)OC(OC9C(CNc%10ccc(C)cc%10)OC(OC2C(O)C3O)C(O)C9O)C(O)C8O)C(O)C7O)C(O)C6O)C(O)C5O)C(O)C4O)cc1 (centres unmarked)
>200 µg/mL: MIC EC (Eschericia coli) | MIC EF (Enterococcus faecium) | MIC PA (Pseudomonas aeruginosa) | MIC SC (Salmonella choleraesuis)

Cl.Cl.Cl.Cl.Cl.Cl.NCCCCCCSCC1OC2OC3C(CSCCCCCCN)OC(OC4C(CSCCCCCCN)OC(OC5C(CSCCCCCCN)OC(OC6C(CSCCCCCCN)OC(OC7C(CSCCCCCCN)OC(OC1C(O)C2O)C(O)C7O)C(O)C6O)C(O)C5O)C(O)C4O)C(O)C3O (centres unmarked)
>200 µg/mL: MIC EC (Eschericia coli) | MIC EF (Enterococcus faecium) | MIC SA (Staphylococcus aureus) | MIC SC (Salmonella choleraesuis)

Cl.Cl.Cl.Cl.Cl.Cl.Cl.NCCCCCCCSCC1OC2OC3C(CSCCCCCCCN)OC(OC4C(CSCCCCCCCN)OC(OC5C(CSCCCCCCCN)OC(OC6C(CSCCCCCCCN)OC(OC7C(CSCCCCCCCN)OC(OC8C(CSCCCCCCCN)OC(OC1C(O)C2O)C(O)C8O)C(O)C7O)C(O)C6O)C(O)C5O)C(O)C4O)C(O)C3O (centres unmarked)
>200 µg/mL: MIC EF (Enterococcus faecium) | MIC SA (Staphylococcus aureus) | MIC PA (Pseudomonas aeruginosa) | MIC SC (Salmonella choleraesuis)

OC1C2OC(CN3CCN(C4CCCCC4)CC3)C(OC3OC(CN4CCN(C5CCCCC5)CC4)C(OC4OC(CN5CCN(C6CCCCC6)CC5)C(OC5OC(CN6CCN(C7CCCCC7)CC6)C(OC6OC(CN7CCN(C8CCCCC8)CC7)C(OC7OC(CN8CCN(C9CCCCC9)CC8)C(OC8OC(CN9CCN(C%10CCCCC%10)CC9)C(O2)C(O)C8O)C(O)C7O)C(O)C6O)C(O)C5O)C(O)C4O)C(O)C3O)C1O (centres unmarked)
>200 µg/mL: MIC EC (Eschericia coli) | MIC EF (Enterococcus faecium) | MIC PA (Pseudomonas aeruginosa) | MIC SC (Salmonella choleraesuis)

Cl.Cl.Cl.Cl.Cl.Cl.Cl.N=C(N)NCCCCCCSCC1OC2OC3C(CSCCCCCCNC(=N)N)OC(OC4C(CSCCCCCCNC(=N)N)OC(OC5C(CSCCCCCCNC(=N)N)OC(OC6C(CSCCCCCCNC(=N)N)OC(OC7C(CSCCCCCCNC(=N)N)OC(OC8C(CSCCCCCCNC(=N)N)OC(OC1C(O)C2O)C(O)C8O)C(O)C7O)C(O)C6O)C(O)C5O)C(O)C4O)C(O)C3O (centres unmarked)
>200 µg/mL: MIC EC (Eschericia coli) | MIC EF (Enterococcus faecium) | MIC PA (Pseudomonas aeruginosa) | MIC SC (Salmonella choleraesuis)

CC(C)[C@H](C)NCC1OC2OC3C(CN[C@@H](C)C(C)C)OC(OC4C(CN[C@@H](C)C(C)C)OC(OC5C(CN[C@@H](C)C(C)C)OC(OC6C(CN[C@@H](C)C(C)C)OC(OC7C(CN[C@@H](C)C(C)C)OC(OC8C(CN[C@@H](C)C(C)C)OC(OC1C(O)C2O)C(O)C8O)C(O)C7O)C(O)C6O)C(O)C5O)C(O)C4O)C(O)C3O (some centres unmarked)
>200 µg/mL: MIC EF (Enterococcus faecium) | MIC PA (Pseudomonas aeruginosa)

Cl.Cl.Cl.Cl.Cl.Cl.Cl.NCCSCCCSCC1OC2OC3C(CSCCCSCCN)OC(OC4C(CSCCCSCCN)OC(OC5C(CSCCCSCCN)OC(OC6C(CSCCCSCCN)OC(OC7C(CSCCCSCCN)OC(OC8C(CSCCCSCCN)OC(OC1C(O)C2O)C(O)C8O)C(O)C7O)C(O)C6O)C(O)C5O)C(O)C4O)C(O)C3O (centres unmarked)
>200 µg/mL: MIC EF (Enterococcus faecium) | MIC SA (Staphylococcus aureus) | MIC PA (Pseudomonas aeruginosa) | MIC SC (Salmonella choleraesuis)
